Converted amounts (≈) assume the structure as drawn.
Legend:
Escherichia coli = test: Antibacterial activity against Escherichia coli ATCC 25922 incubated for 16 to 18 hrs by serial plate dilution method; format: functional; conditions: time hrs 16-18
Staphylococcus aureus [1] = test: Antibacterial activity against methicillin-resistant Staphylococcus aureus ATCC 25923 incubated for 16 to 18 hrs by serial plate dilution method; format: functional; conditions: time hrs 16-18
Aspergillus flavus = test: Antifungal activity against Aspergillus flavus NCIM 524 incubated for 3 to 4 days by serial plate dilution method; format: functional; conditions: time day 3-4
Pseudomonas aeruginosa = test: Antibacterial activity against Pseudomonas aeruginosa ATCC 27853 incubated for 16 to 18 hrs by serial plate dilution method; format: functional; conditions: time hrs 16-18
Talaromyces marneffei = test: Antifungal activity against Penicillium marneffei incubated for 3 to 4 days by serial plate dilution method; format: functional; conditions: time day 3-4
[2] = system: Trichophyton mentagrophytes; test: Antifungal activity against Trichophyton mentagrophytes incubated for 3 to 4 days by serial plate dilution method; format: functional; conditions: time day 3-4
Aspergillus fumigatus = test: Antifungal activity against Aspergillus fumigatus NCIM 902 incubated for 3 to 4 days by serial plate dilution method; format: functional; conditions: time day 3-4
Klebsiella pneumoniae = test: Antibacterial activity against Klebsiella pneumoniae incubated for 16 to 18 hrs by serial plate dilution method; format: functional; conditions: time hrs 16-18
KB = test: Cytotoxicity against human KB cells; format: cell-based; conditions: Homo sapiens, KB
Bacillus cereus = test: Antibacterial activity against Bacillus cereus; format: functional
Staphylococcus aureus [3] = test: Antibacterial activity against Staphylococcus aureus; format: functional

Cc1c(C(=O)N/N=C/c2ccccc2O)nnn1-c1cc(C(F)(F)F)nc2c(C(F)(F)F)cccc12
MIC (Escherichia coli): 6.25 µg/mL (≈ 12.3 µM) | MIC (Staphylococcus aureus [1]): 6.25 µg/mL (≈ 12.3 µM) | MIC (Aspergillus flavus): 6.25 µg/mL (≈ 12.3 µM) | MIC (Pseudomonas aeruginosa): 6.25 µg/mL (≈ 12.3 µM) | MIC (Talaromyces marneffei): 6.25 µg/mL (≈ 12.3 µM) | MIC [2]: 6.25 µg/mL (≈ 12.3 µM) | MIC (Aspergillus fumigatus): 6.25 µg/mL (≈ 12.3 µM) | MIC (Klebsiella pneumoniae): 6.25 µg/mL (≈ 12.3 µM)

CC(C)C[C@H](NC(=O)CNC(=O)C(C)(C)NC(=O)[C@@H](NC(=O)C(C)(C)NC(=O)[C@H](CCC(N)=O)NC(=O)[C@H](C)NC(=O)C(C)(C)NC(=O)[C@H](C)NC(=O)C(C)(C)NC(=O)[C@@H]1CCN(C(=O)C(C)(C)n2cc(-c3ccc(OC(F)(F)F)c(F)c3)nn2)C1)C(C)C)C(=O)NC(C)(C)C(=O)N1CCC[C@@H]1C(=O)N[C@H](C(=O)NC(C)(C)C(=O)NC(C)(C)C(=O)N[C@@H](CCC(N)=O)C(=O)N[C@@H](CCC(N)=O)C(=O)N[C@H](CO)Cc1ccccc1)C(C)C
IC50 (KB): 2.9 µg/mL (≈ 1.35 µM) | MIC (Bacillus cereus): 1.56 µg/mL (≈ 0.725 µM) | MIC (Staphylococcus aureus [3]): 1.56 µg/mL (≈ 0.725 µM)

Cc1c(C(=O)N/N=C/c2ccc([N+](=O)[O-])cc2)nnn1-c1cc(C(F)(F)F)nc2c(C(F)(F)F)cccc12
MIC (Escherichia coli): 6.25 µg/mL (≈ 11.6 µM) | MIC (Staphylococcus aureus [1]): 6.25 µg/mL (≈ 11.6 µM) | MIC (Aspergillus flavus): 6.25 µg/mL (≈ 11.6 µM) | MIC (Pseudomonas aeruginosa): 6.25 µg/mL (≈ 11.6 µM) | MIC (Talaromyces marneffei): 6.25 µg/mL (≈ 11.6 µM) | MIC [2]: 6.25 µg/mL (≈ 11.6 µM) | MIC (Aspergillus fumigatus): 6.25 µg/mL (≈ 11.6 µM) | MIC (Klebsiella pneumoniae): 6.25 µg/mL (≈ 11.6 µM)

CC(C)C[C@H](NC(=O)CNC(=O)C(C)(C)NC(=O)[C@@H](NC(=O)C(C)(C)NC(=O)[C@H](CCC(N)=O)NC(=O)[C@H](C)NC(=O)C(C)(C)NC(=O)[C@H](C)NC(=O)C(C)(C)NC(=O)[C@@H]1CCN(C(=O)C(C)(C)n2cc(-c3ccc(-c4ccccc4)cc3)nn2)C1)C(C)C)C(=O)NC(C)(C)C(=O)N1CCC[C@@H]1C(=O)N[C@H](C(=O)NC(C)(C)C(=O)NC(C)(C)C(=O)N[C@@H](CCC(N)=O)C(=O)N[C@@H](CCC(N)=O)C(=O)N[C@H](CO)Cc1ccccc1)C(C)C
IC50 (KB): 2.9 µg/mL (≈ 1.36 µM) | MIC (Bacillus cereus): 1.56 µg/mL (≈ 0.734 µM) | MIC (Staphylococcus aureus [3]): 1.56 µg/mL (≈ 0.734 µM)

CC(C)C[C@H](NC(=O)CNC(=O)C(C)(C)NC(=O)[C@@H](NC(=O)C(C)(C)NC(=O)[C@H](CCC(N)=O)NC(=O)[C@H](C)NC(=O)C(C)(C)NC(=O)[C@H](C)NC(=O)C(C)(C)NC(=O)[C@@H]1CCN(C(=O)C(C)(C)n2cc(-c3cc(C(F)(F)F)cc(C(F)(F)F)c3)nn2)C1)C(C)C)C(=O)NC(C)(C)C(=O)N1CCC[C@@H]1C(=O)N[C@H](C(=O)NC(C)(C)C(=O)NC(C)(C)C(=O)N[C@@H](CCC(N)=O)C(=O)N[C@@H](CCC(N)=O)C(=O)N[C@H](CO)Cc1ccccc1)C(C)C
IC50 (KB): 2.9 µg/mL (≈ 1.33 µM) | MIC (Bacillus cereus): 1.56 µg/mL (≈ 0.714 µM) | MIC (Staphylococcus aureus [3]): 1.56 µg/mL (≈ 0.714 µM)

Cc1c(C(=O)N/N=C/c2ccc(O)cc2)nnn1-c1cc(C(F)(F)F)nc2c(C(F)(F)F)cccc12
MIC (Escherichia coli): 6.25 µg/mL (≈ 12.3 µM) | MIC (Staphylococcus aureus [1]): 6.25 µg/mL (≈ 12.3 µM) | MIC (Aspergillus flavus): 6.25 µg/mL (≈ 12.3 µM) | MIC (Pseudomonas aeruginosa): 6.25 µg/mL (≈ 12.3 µM) | MIC (Talaromyces marneffei): 6.25 µg/mL (≈ 12.3 µM) | MIC [2]: 6.25 µg/mL (≈ 12.3 µM) | MIC (Aspergillus fumigatus): 6.25 µg/mL (≈ 12.3 µM) | MIC (Klebsiella pneumoniae): 6.25 µg/mL (≈ 12.3 µM)

CC(C)C[C@H](NC(=O)CNC(=O)C(C)(C)NC(=O)[C@@H](NC(=O)C(C)(C)NC(=O)[C@H](CCC(N)=O)NC(=O)[C@H](C)NC(=O)C(C)(C)NC(=O)[C@H](C)NC(=O)C(C)(C)NC(=O)[C@@H]1CCN(C(=O)C(C)(C)n2cc(-c3ccc(F)cc3F)nn2)C1)C(C)C)C(=O)NC(C)(C)C(=O)N1CCC[C@@H]1C(=O)N[C@H](C(=O)NC(C)(C)C(=O)NC(C)(C)C(=O)N[C@@H](CCC(N)=O)C(=O)N[C@@H](CCC(N)=O)C(=O)N[C@H](CO)Cc1ccccc1)C(C)C
IC50 (KB): 2.9 µg/mL (≈ 1.39 µM) | MIC (Bacillus cereus): 1.56 µg/mL (≈ 0.748 µM) | MIC (Staphylococcus aureus [3]): 1.56 µg/mL (≈ 0.748 µM)

Cc1c(C(=O)N/N=C/c2ccccc2)nnn1-c1cc(C(F)(F)F)nc2c(C(F)(F)F)cccc12
MIC (Escherichia coli): 6.25 µg/mL (≈ 12.7 µM) | MIC (Staphylococcus aureus [1]): 6.25 µg/mL (≈ 12.7 µM) | MIC (Aspergillus flavus): 6.25 µg/mL (≈ 12.7 µM) | MIC (Pseudomonas aeruginosa): 6.25 µg/mL (≈ 12.7 µM) | MIC (Talaromyces marneffei): 6.25 µg/mL (≈ 12.7 µM) | MIC [2]: 6.25 µg/mL (≈ 12.7 µM) | MIC (Aspergillus fumigatus): 6.25 µg/mL (≈ 12.7 µM) | MIC (Klebsiella pneumoniae): 6.25 µg/mL (≈ 12.7 µM)

CC(C)C[C@H](NC(=O)CNC(=O)C(C)(C)NC(=O)[C@@H](NC(=O)C(C)(C)NC(=O)[C@H](CCC(N)=O)NC(=O)[C@H](C)NC(=O)C(C)(C)NC(=O)[C@H](C)NC(=O)C(C)(C)NC(=O)[C@@H]1CCN(C(=O)C(C)(C)n2cc(-c3ccccc3)nn2)C1)C(C)C)C(=O)NC(C)(C)C(=O)N1CCC[C@@H]1C(=O)N[C@H](C(=O)NC(C)(C)C(=O)NC(C)(C)C(=O)N[C@@H](CCC(N)=O)C(=O)N[C@@H](CCC(N)=O)C(=O)N[C@H](CO)Cc1ccccc1)C(C)C
IC50 (KB): 2.9 µg/mL (≈ 1.42 µM) | MIC (Bacillus cereus): 1.56 µg/mL (≈ 0.761 µM) | MIC (Staphylococcus aureus [3]): 1.56 µg/mL (≈ 0.761 µM)

CC(C)C[C@H](NC(=O)CNC(=O)C(C)(C)NC(=O)[C@@H](NC(=O)C(C)(C)NC(=O)[C@H](CCC(N)=O)NC(=O)[C@H](C)NC(=O)C(C)(C)NC(=O)[C@H](C)NC(=O)C(C)(C)NC(=O)[C@@H]1CCN(C(=O)C(C)(C)n2cc(-c3ccc4ccc5cccc6ccc3c4c56)nn2)C1)C(C)C)C(=O)NC(C)(C)C(=O)N1CCC[C@@H]1C(=O)N[C@H](C(=O)NC(C)(C)C(=O)NC(C)(C)C(=O)N[C@@H](CCC(N)=O)C(=O)N[C@@H](CCC(N)=O)C(=O)N[C@H](CO)Cc1ccccc1)C(C)C
IC50 (KB): 2.9 µg/mL (≈ 1.33 µM) | MIC (Bacillus cereus): 1.56 µg/mL (≈ 0.718 µM) | MIC (Staphylococcus aureus [3]): 1.56 µg/mL (≈ 0.718 µM)

COc1ccc(/C=N/NC(=O)c2nnn(-c3cc(C(F)(F)F)nc4c(C(F)(F)F)cccc34)c2C)cc1OC
MIC (Escherichia coli): 6.25 µg/mL (≈ 11.3 µM) | MIC (Staphylococcus aureus [1]): 6.25 µg/mL (≈ 11.3 µM) | MIC (Aspergillus flavus): 6.25 µg/mL (≈ 11.3 µM) | MIC (Pseudomonas aeruginosa): 6.25 µg/mL (≈ 11.3 µM) | MIC (Talaromyces marneffei): 6.25 µg/mL (≈ 11.3 µM) | MIC [2]: 6.25 µg/mL (≈ 11.3 µM) | MIC (Aspergillus fumigatus): 6.25 µg/mL (≈ 11.3 µM) | MIC (Klebsiella pneumoniae): 6.25 µg/mL (≈ 11.3 µM)

— ChEMBL document CHEMBL4699440, “Comprehensive review on the anti-bacterial activity of 1,2,3-triazole hybrids” (Eur J Med Chem, 2019)
